# Test results from patent publication US10585087B2, “Method for evaluating and selecting agent for suppressing odors of sulfide compounds” (KAO CORPORATION, priority 2015, dated 2020).
# Columns and labels:
# olfactory receptor OR4S2 [1] = target: T1, olfactory receptor OR4S2 (Homo sapiens, UniProt Q8NH73); experiment: Luciferase reporter gene assay: response of olfactory receptor to sulfide compound; format: cell-based; conditions: for response of olfactory receptor OR4S2 (fold increase) in screen of 428 olfactory receptors / concentration dependence of the response of OR4S2: HEK293 cells expressing OR4S2; for response of olfactory receptor OR4S2 (fold increase) in screen of 428 olfactory receptors: 100 μM sulfide compound, FIG. 1; for concentration dependence of the response of OR4S2: different concentrations, FIG. 2
# T1 construct: expressed in transfected cells; host or cells: HEK293
# T1 sequence (Q8NH73 1-311): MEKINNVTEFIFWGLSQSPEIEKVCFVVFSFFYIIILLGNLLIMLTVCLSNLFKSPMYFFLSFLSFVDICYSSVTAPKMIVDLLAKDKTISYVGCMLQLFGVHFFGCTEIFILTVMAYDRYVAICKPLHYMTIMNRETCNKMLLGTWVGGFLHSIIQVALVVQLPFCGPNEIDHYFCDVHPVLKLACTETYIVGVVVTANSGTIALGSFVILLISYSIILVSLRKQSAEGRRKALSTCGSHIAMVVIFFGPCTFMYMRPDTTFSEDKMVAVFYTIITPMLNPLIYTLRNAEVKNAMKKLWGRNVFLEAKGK
# From the text: A human olfactory receptor was cloned by using the PCR method with human genomic DNA (G1521: Promega Corporation) as a template on the basis of sequence information registered in GenBank. Each gene amplified through the PCR method was incorporated into a pENTR vector (Invitrogen) in accordance with the manual, and recombined, by utilizing the NotI and AscI sites present in the pENTR vector, with a pME18S vector at the NotI and AscI sites produced in the downstream of the Flag-Rho tag sequence of the pME18S vector.
# An RTP1S gene (SEQ ID NO: 3) encoding RTP1S (SEQ ID NO: 4) was incorporated into the pME18S vector at the EcoRI and XhoI sites thereof.
# HEK293 cells expressing any one of 428 human olfactory receptors were produced. A reaction solution with a composition shown in Table 2 was prepared and left to stand in a clean bench for 15 minutes, and then added to each well of a 96-well plate (BD Biosciences). Subsequently, 90 μL of HEK293 cells (3×10^5 cells/cm^2) was seeded in each well, and cultured in an incubator retained at 37° C. and 5% CO2 for 24 hours. As a control, cells with conditions for no expression of an olfactory receptor (Mock) were prepared and used in an experiment.
# An olfactory receptor expressed on HEK293 cells increases the intracellular cAMP level through conjugation with the intracellular Gαs followed by resulting activation of adenylate cyclase. For smell response measurement in this study, luciferase reporter gene assay was used in which increase of the intracellular cAMP level is monitored as an emission value derived from a firefly luciferase gene (fluc2P-CRE-hygro). Transgenesis was simultaneously performed by using a product with a sea pansy luciferase gene fused to the downstream of the CMV promoter (hRluc-CMV), and the resultant was used as an internal standard to correct errors of transgenesis efficiency and the number of cells.
# The medium was removed from the culture prepared in the above (3), and 75 μL of a solution containing a sulfide compound prepared with DMEM (NACALAI TESQUE, INC.) was added. The sulfide compound was 100 μM of dimethyl disulfide (DMDS) or dimethyl trisulfide (DMTS). The cells were cultured in a CO2 incubator for 3 hours to allow the luciferase gene to be sufficiently expressed in the cells. Measurement of the activity of luciferase was performed by using a Dual-Glo™ luciferase assay system (Promega Corporation) in accordance with an operation manual of the product. For each stimulus condition, the value fLuc/hRluc was calculated by dividing the emission value derived from firefly luciferase by the emission value derived from sea pansy luciferase. The value fLuc/hRluc derived from firefly luciferase and induced by a stimulus of a sulfide compound was divided by the value fLuc/hRluc for cells without a stimulus of a sulfide compound to calculate a fold increase, and the fold increase was used as an indicator of intensity of response.
# olfactory receptor OR4S2 [2] = target: T1, olfactory receptor OR4S2; experiment: Luciferase reporter gene assay: suppression of OR4S2 response to DMDS or DMTS by test substance; format: cell-based; conditions: for response (Fold increase) of OR4S2 to DMTS in the presence of test substance: 300 μM DMTS, test substance 100 μM, FIG. 6; for response (Response %) of OR4S2 to DMDS in the presence of test substance: 1 mM DMDS, test substance 0 to 3000 μM, FIG. 5
# Procedure: By using the same procedure as in Example 1 (1) to (3), HEK293 cells expressing OR4S2 (SEQ ID NO: 2) were prepared. The response of the olfactory receptor to DMDS (the value fLuc/hRluc) was measured in the presence and absence of a test substance by using luciferase reporter gene assay in accordance with the procedure in Example 1 (4). The value fLuc/hRluc induced by a stimulus of single DMDS, (X), the value fLuc/hRluc for cells without a stimulus of DMDS, (Y), and the value fLuc/hRluc induced by a co-stimulus of DMDS and a test substance, (Z), were determined, and the intensity of the response (Response (%)) of the receptor to DMDS in the presence of a test substance was determined by using the following formula. Response (%)=(Z−Y)/(X−Y)×100 The experiment was performed independently three times, and the average value of the experiments was determined. The concentration of DMDS to be added to a culture was set at 1 mM, and the concentration of a test substance to be added was changed in the range of from 0 to 3000 μM.
# For the response to DMTS, the value fLuc/hRluc to a stimulus of single DMTS, (X′), was divided by the value fLuc/hRluc for cells without a stimulus of DMTS, (Y), and the value obtained by the division, (X′/Y), was set as a value of the response to DMTS (Fold increase). To compare the effect of a test substance on the response to DMTS, the value fLuc/hRluc induced by a co-stimulus of DMTS and a test substance, (Z′), was similarly divided by the value fLuc/hRluc for cells without a stimulus, (Y), to calculate (Z′/Y) as Fold increase. The experiment was performed independently three times, and the average value of the experiments was determined. The concentration of DMTS to be added to a culture was set at 300 μM, and the concentration of a test substance to be added was set at 100 μM.
# [3] = Sensory test of odor-suppressing effect for sulfide compounds; format: in vivo; conditions: for odor intensity of DMTS in sensory test: 0.01% (v/v) DMTS and 0.1% (v/v) test substance in mineral oil, 11 evaluators, FIG. 7B; for odor intensity of DMDS in sensory test: 0.1% (v/v) DMDS and 0.1% (v/v) test substance in mineral oil, 10 evaluators, FIG. 7A
# Procedure: For each of DMDS, cis-4-heptenal, and 1,4-cineol, a 0.1% (v/v) solution in mineral oil was prepared. For DMTS, a 0.01% (v/v) solution in mineral oil was prepared. Two cotton balls were put in a 20 mL glass bottle (Maruemu Corporation, No. 6), and one cotton ball was impregnated with 30 μL of the DMDS or DMTS solution, and the other cotton ball was impregnated with 30 μL a solution of one of the OR4S2 antagonists. The glass bottle containing the cotton balls was covered with a lid, and left to stand at 37° C. for 1 hour, and thereafter used as a test sample for a sensory test. Glass bottles containing only a cotton ball impregnated with the DMDS or DMTS solution were prepared as reference samples, and a glass bottle containing only a cotton ball impregnated with mineral oil (Vehicle) was prepared as a control sample.
# A sensory test was performed in a single-blinded mode with 10 evaluators for DMDS and 11 evaluators for DMTS. The test was initiated after two o'clock pm, which was 1.5 hours or longer after a meal. To prevent diffusion of a smell, the test was performed essentially under a fume hood. To eliminate the influence of adaptation to odors of sulfide compounds, the evaluators were appropriately checked for the intensity of recognition to the odor of DMDS or DMTS in the test, and rested as necessary. The evaluators were separated into two groups, and one group evaluated the odor-suppressing effect for DMDS or DMTS with respect to cis-4-heptenal and 1,4-cineol, in the order presented, and the other group evaluated it with respect to 1,4-cineol and cis-4-heptenal, in the order presented. Each test sample was replaced with another one after evaluation by each of three evaluators.
# In evaluation of odors of test samples, the following criteria in five grades were set for each evaluator: “odor of DMDS (or DMTS) was 1: unidentifiable, 2: perceivable, 3: easily identifiable, 4: strong, 5: intolerably strong”, and the evaluators rated the odor intensity of DMDS (or DMTS) for each test sample in nine grades from 1.0 to 5.0 at an interval of 0.5, where the odor intensity of single DMDS (or DMTS) was assumed as 3. The average value of the evaluation results by the evaluators was determined.
response (Fold increase) of OR4S2 to DMTS in the presence of test substance (olfactory receptor OR4S2 [2]),SMILES,response of olfactory receptor OR4S2 (fold increase) in screen of 428 olfactory receptors (olfactory receptor OR4S2 [1]),concentration dependence of the response of OR4S2 (olfactory receptor OR4S2 [1]),response (Response %) of OR4S2 to DMDS in the presence of test substance (olfactory receptor OR4S2 [2]),odor intensity of DMTS in sensory test [3],odor intensity of DMDS in sensory test [3],also measured
–,"CSSSC [DMTS, Dimethyl trisulfide]",exhibits a specific response,in a concentration-dependent manner,–,–,–,–
suppressed the response of OR4S2 to DMTS,"CC/C=C\CCC=O [cis-4-Heptenal, (Z)-Hept-4-enal]",–,–,suppressed the response of OR4S2 to DMDS in a concentration-dependent manner,suppressed the odor intensity,suppressed the odor intensity,–
–,"CS [methylmercaptan, Methylmercaptan]",–,–,–,–,–,"response of OR4S2 (olfactory receptor OR4S2 [1]; 3 mM, FIG. 4): did not respond"
–,"CSSC [DMDS, Dimethyl disulfide]",exhibits a specific response,in a concentration-dependent manner,–,–,–,–
–,"CSC [dimethyl sulfide (DMS), Dimethylsulfide]",–,–,–,–,–,"response of OR4S2 (olfactory receptor OR4S2 [1]; concentration of 1 mM and 3 mM, FIG. 3): responded"
suppressed the response of OR4S2 to DMTS,"CC(C)C12CCC(C)(CC1)O2 [1,4-cineol, 1,4-Cineole]",–,–,suppressed the response of OR4S2 to DMDS in a concentration-dependent manner,suppressed the odor intensity,suppressed the odor intensity,–
